Experimental data as given in patent US12275731B2, “Azaindole inhibitors of wild-type and mutant forms of LRRK2” (DANA-FARBER CANCER INSTITUTE, INC., priority 2018, dated 2025).

Experiments:
Test in all cases: KinomeScan profiling
Format in all cases: binding
[1] = target: MST4 (Homo sapiens, UniProt Q9P289); details: MST4, 1 μM; read-out: % control
How it was run: (§1)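 Percent-of-control values derive from RLU, calculated as (test − positive)/(negative − positive) × 100, where DMSO defines 100% and a positive control compound defines 0%. Each compound was tested at 1 μM in the 468-kinase panel; sub-35% readings indicate activity.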

[2] = target: CSF1R (Homo sapiens, UniProt P07333); details: read-out: % control
CSF1R, sequence (P07333 20-972): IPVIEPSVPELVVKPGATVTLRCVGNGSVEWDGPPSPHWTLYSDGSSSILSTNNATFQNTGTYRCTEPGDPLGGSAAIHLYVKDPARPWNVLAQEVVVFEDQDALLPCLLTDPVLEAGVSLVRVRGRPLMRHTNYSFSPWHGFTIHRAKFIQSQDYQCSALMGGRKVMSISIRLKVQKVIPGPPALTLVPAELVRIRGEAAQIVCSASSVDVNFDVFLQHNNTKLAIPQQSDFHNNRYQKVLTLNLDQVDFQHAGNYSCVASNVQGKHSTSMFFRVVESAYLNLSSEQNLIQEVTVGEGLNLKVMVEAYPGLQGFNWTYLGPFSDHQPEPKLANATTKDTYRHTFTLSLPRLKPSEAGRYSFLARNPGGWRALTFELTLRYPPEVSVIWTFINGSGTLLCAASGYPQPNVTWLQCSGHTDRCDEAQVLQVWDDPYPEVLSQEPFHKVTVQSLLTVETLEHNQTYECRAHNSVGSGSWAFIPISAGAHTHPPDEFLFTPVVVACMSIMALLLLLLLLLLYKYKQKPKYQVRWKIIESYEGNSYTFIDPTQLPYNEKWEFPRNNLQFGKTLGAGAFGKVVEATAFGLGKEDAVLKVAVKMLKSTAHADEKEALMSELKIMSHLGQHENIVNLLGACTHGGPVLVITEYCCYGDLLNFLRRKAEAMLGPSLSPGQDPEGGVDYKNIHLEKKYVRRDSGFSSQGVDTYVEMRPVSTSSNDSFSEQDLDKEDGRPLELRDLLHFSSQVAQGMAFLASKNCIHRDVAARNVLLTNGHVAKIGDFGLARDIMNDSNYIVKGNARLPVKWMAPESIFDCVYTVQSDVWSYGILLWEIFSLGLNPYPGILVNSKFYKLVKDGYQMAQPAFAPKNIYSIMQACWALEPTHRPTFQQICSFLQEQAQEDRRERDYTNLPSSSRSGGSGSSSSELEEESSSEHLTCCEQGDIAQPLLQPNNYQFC
How it was run: as §1

[3] = target: T1, ULK1 (Homo sapiens, UniProt O75385); details: ULK1, 1 μM; read-out: % control
T1 sequence (O75385 1-1050): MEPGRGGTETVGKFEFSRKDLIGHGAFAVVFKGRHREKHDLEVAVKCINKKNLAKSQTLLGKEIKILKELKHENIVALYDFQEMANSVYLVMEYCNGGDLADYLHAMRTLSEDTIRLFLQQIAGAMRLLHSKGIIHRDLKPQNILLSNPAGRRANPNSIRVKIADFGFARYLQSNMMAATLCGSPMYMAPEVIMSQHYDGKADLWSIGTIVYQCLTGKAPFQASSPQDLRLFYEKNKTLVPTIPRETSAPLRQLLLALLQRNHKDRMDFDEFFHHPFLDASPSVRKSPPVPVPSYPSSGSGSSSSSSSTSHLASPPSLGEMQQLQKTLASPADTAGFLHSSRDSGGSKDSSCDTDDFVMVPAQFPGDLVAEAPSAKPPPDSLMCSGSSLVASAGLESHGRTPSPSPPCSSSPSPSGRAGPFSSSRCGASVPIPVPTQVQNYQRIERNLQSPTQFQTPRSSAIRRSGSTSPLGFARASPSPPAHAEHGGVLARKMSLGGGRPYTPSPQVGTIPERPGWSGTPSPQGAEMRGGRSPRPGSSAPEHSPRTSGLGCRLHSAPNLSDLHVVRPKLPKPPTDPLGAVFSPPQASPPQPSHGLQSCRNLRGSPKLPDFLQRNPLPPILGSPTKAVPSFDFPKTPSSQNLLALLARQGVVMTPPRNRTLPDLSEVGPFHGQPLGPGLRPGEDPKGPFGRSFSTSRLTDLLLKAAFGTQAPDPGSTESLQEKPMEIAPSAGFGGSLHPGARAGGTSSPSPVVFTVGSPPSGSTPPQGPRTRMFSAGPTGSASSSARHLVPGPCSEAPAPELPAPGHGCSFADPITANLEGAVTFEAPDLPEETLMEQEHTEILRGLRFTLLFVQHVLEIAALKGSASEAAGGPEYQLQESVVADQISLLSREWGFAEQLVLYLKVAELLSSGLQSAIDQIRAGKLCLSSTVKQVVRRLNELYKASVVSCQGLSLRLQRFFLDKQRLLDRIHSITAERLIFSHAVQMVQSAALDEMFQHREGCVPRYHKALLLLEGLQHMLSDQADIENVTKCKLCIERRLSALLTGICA
How it was run: as §1

[4] = target: T2, FLT3-autoinhibited (Homo sapiens, UniProt P36888); details: read-out: % control
T2 sequence (P36888 564-993 limits assumed): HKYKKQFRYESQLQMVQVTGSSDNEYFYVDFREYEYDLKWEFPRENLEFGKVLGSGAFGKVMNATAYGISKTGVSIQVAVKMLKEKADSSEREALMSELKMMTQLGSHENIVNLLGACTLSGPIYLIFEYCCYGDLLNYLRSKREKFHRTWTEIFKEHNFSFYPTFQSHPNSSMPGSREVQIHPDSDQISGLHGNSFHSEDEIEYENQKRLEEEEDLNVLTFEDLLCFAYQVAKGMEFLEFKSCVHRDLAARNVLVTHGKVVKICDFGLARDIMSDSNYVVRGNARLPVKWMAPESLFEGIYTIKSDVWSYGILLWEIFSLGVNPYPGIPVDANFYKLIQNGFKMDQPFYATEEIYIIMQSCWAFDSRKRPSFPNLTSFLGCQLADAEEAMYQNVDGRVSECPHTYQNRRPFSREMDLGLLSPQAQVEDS
How it was run: as §1

[5] = target: T3, STK39 (Homo sapiens, UniProt Q9UEW8); details: STK39, 1 μM; read-out: % control
T3 construct: purchased KinomeScan® (panel service)
How it was run: as §1

[6] = target: p38-beta (Homo sapiens, UniProt Q15759); details: read-out: % control
p38-beta, sequence (Q15759 whole entry): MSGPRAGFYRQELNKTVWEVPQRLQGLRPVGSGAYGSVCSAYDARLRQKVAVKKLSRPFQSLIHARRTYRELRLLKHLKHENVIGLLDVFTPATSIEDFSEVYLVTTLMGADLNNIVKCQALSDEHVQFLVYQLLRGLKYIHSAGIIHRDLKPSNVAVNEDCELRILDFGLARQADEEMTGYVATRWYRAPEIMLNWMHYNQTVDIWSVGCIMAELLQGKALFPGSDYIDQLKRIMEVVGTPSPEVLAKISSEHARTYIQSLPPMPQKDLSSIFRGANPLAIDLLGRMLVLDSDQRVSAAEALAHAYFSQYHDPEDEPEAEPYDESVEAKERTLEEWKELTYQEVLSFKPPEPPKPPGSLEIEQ
How it was run: as §1

[7] = target: MKNK1 (Homo sapiens, UniProt Q9BUB5); details: MKNK1, 1 μM; read-out: % control
MKNK1, sequence (Q9BUB5 whole entry): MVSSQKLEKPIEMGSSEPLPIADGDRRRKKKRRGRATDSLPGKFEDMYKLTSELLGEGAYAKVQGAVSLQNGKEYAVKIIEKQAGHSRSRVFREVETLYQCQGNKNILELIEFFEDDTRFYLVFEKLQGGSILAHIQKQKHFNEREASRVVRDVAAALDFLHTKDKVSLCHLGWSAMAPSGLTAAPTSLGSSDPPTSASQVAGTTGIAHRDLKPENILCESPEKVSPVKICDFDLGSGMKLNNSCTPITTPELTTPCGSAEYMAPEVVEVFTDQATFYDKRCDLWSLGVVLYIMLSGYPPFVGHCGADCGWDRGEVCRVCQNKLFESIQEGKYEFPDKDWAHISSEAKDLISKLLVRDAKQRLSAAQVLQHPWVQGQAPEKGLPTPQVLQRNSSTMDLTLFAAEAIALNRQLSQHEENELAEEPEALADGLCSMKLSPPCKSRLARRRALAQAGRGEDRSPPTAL
How it was run: as §1

MST4, sequence (Q9P289 whole entry): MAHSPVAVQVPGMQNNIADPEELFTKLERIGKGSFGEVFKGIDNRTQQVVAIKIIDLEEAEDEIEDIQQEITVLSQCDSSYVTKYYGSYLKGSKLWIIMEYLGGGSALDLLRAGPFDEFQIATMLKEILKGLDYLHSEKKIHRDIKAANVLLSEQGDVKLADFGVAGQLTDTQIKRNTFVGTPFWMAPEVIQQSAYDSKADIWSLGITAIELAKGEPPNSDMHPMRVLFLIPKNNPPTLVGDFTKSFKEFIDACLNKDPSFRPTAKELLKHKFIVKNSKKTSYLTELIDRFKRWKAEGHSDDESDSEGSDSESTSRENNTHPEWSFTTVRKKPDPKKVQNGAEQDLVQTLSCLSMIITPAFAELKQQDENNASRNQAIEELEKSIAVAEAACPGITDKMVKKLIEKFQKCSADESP

Question: With O=C(c1ccc(-c2cnc3[nH]cc(Cl)c3c2NC2CCCC2)cc1)N1CCC(N2CCOCC2)CC1 [Compound 101, (4-(3-chloro-4-(cyclopentylamino)-1H-pyrrolo[2,3-b]pyridin-5-yl)phenyl)(4-morpholinopiperidin-1-yl)methanone] as the compound, how does the remaining binding at 1 µM [1] read?
Answer: 100%

Question: What about the remaining binding at 1 µM [2] of the same compound?
Answer: 28%

Question: And the remaining binding at 1 µM [3]?
Answer: 73%

Question: And the remaining binding at 1 µM [4]?
Answer: 62%

Question: What about the remaining binding at 1 µM [5] of the same compound?
Answer: 80%

Question: And the remaining binding at 1 µM [6]?
Answer: 92%

Question: And the remaining binding at 1 µM [7]?
Answer: 100%

Question: How did the remaining binding at 1 µM [1] turn out when CNc1c(-c2cnn([C@H]3CCN(C(C)=O)C[C@@H]3F)c2)cnc2[nH]cc(Cl)c12 [Compound 77, 1-((3S,4S)-4-(4-(3-chloro-4-(methylamino)-1H-pyrrolo[2,3-b]pyridin-5-yl)-1H-pyrazol-1-yl)-3-fluoropiperidin-1-yl)ethan-1-one] was run?
Answer: 67%

Question: And the remaining binding at 1 µM [2]?
Answer: 74%

Question: What about the remaining binding at 1 µM [3] of the same compound?
Answer: 3.1%

Question: And the remaining binding at 1 µM [4]?
Answer: 53%

Question: And the remaining binding at 1 µM [5]?
Answer: 16%

Question: What about the remaining binding at 1 µM [6] of the same compound?
Answer: 95%

Question: And the remaining binding at 1 µM [7]?
Answer: 97%

Question: For CNc1c(-c2ccc(C(=O)N3CCC(N4CCOCC4)CC3)cc2)cnc2[nH]cc(Cl)c12 [Compound 96, (4-(3-chloro-4-(methylamino)-1H-pyrrolo[2,3-b]pyridin-5-yl)phenyl)(4-morpholinopiperidin-1-yl)methanone], which remaining binding at 1 µM [1] is on record?
Answer: 99%

Question: What about the remaining binding at 1 µM [2] of the same compound?
Answer: 73%

Question: What about the remaining binding at 1 µM [3] of the same compound?
Answer: 3.8%

Question: What about the remaining binding at 1 µM [4] of the same compound?
Answer: 93%

Question: And the remaining binding at 1 µM [5]?
Answer: 9.7%

Question: What about the remaining binding at 1 µM [6] of the same compound?
Answer: 58%

Question: And the remaining binding at 1 µM [7]?
Answer: 100%
